{
  "source": "patent US20230355581A1",
  "about": "“METHODS OF TREATMENT FOR MELANOMA” (THE BOARD OF REGENTS OF THE UNVERSITY OF TEXAS SYSTEM, priority 2020, published 2023)",
  "key": {"[1]": {"test_system": "B16F10 melanoma cells", "assay": "3D collagen culture viability dose response, B16F10", "assay_type": "cell-based, murine", "settings": "B16F10, 3D collagen matrix", "description": "Y-axis is the viability ratio where 1=100% viability, and 0=0% viability. The lines are non-linear fits, which are used to show the best fit curves. Those same fits are also used to calculate IC50 values. RMIC (where applicable) and DMSO are indicated as separate dots.\nFIG. 1 panels A-F show the effect of SU11652 on BRAF V600E mutant (A375, M481) and BRAF-WT (M405, M498) as well as B16BL6 and B16F10 melanoma cells. The indicated cell line was cultured in collagen matrix to create physiologically relevant 3D culture conditions. The drug treatment was applied for 72 h and the response quantified. Three types of signal were measured using three different markers: apoptosis (CellEvent Caspase 3/7), permeabilized cell nuclei (ethidium homodimer), and all nuclei (Hoechst 33342) using an epifliorescence microscope. Each well of a 96-well plate was imaged at three different locations, with a z-step size of 2 μm for 251 steps to cover the entire height at that location. […] To resolve overlaps, we used the following precedence: permeabilization indicates cell death thus overwrites both other channels; in the absence of permeabilization, apoptosis marker overrides the Hoechst nuclear stain. These absolute pixel counts signal were converted to a relative viability signal by calculating the ratio of ethidium homodimer plus apoptosis signal to the total nuclear stain signal. […]"}, "[2]": {"test_system": "B16-F10 cells (BRAF-WT)", "assay": "B16-F10 intradermal tumor model in immunocompetent mice", "assay_type": "in vivo, WT C57BL/6 mice", "settings": "for tumor growth rate between day 7 and 11 (mean tumor burden): 4 consecutive days from day 7, 0 mg/kg group 7.92", "procedure": "WT C57BL/6 mice were implanted with 300,000 B16-F10 cells intradermally. The animals were regrouped to normalize the tumor volume. Animals were administered vehicle control (DMSO in PBS, 0 mg/kg SU11652) or increasing doses of SU11652 (10-20-40 mg/kg) orally for 4 consecutive days starting day 7, when the tumors are palpable. The tumor dimensions were measured by caliper (in mm) and the tumor volumes are calculated as follows: tumor volume=(short side^2×long side)/2 (in mm^3). […] Tumors grew approximately 7.92 times between day 7 and 11 in 0 mg/kg group, however the presence of SU11652 decreased the tumor growth rate to 3.8 to 2.35 (10 mg/kg to 40 mg/kg).\nThe experiment was terminated at day 20 since some animals had tumors large tumors in 0 mg/kg group and were required to be euthanized.\nHigher doses of SU11652 lead to more tumor control."}, "[3]": {"test_system": "CD8+ and CD4+ T lymphocytes (murine splenocytes)", "assay": "T lymphocyte proliferation by CFSE dilution", "assay_type": "cell-based", "settings": "anti-CD3, anti-CD28, IL-2 stimulated, 3 days", "procedure": "Murine splenocytes were stimulated with anti-CD3, anti-CD28 and murine recombinant IL-2 in addition to the indicated SU11652 doses for 3 days. Prior to stimulation, cells were stained with carboxyfluorescein succinimidyl ester (CFSE) to track cell division. […] Additionally, cells were treated with phorbol 12-myristate 13-acetate (PMA)/ionomycin/monensin for six hours to detect the intracellular cytokines 72 h post-stimulation. […] CFSE dilution and the intracellular cytokines were detected by flow cytometry. Error bars represent SEM for n=3 mice.\nMurine splenocytes were stimulated with anti-CD3, anti-CD28, and murine recombinant IL-2 in addition to the indicated SU11652 doses for 3 days. Prior to stimulation, cells were stained with CFSE to track cell division. […] Additionally, cells were treated with PMA/lonomycin/Monensin for six hours to detect intracellular cytokines. […] CFSE dilution and intracellular cytokines were detected by flow cytometry. Error bars represent SEM for n=3 mice."}, "[4]": {"test_system": "IGR1 (RAC1^P29S) cell line", "assay": "Cytotoxic and cytostatic activity, IGR1", "assay_type": "cell-based", "settings": "IGR1, addition of SU11652 to RMIC", "excerpt": "Two new cell lines were used to shed insight into the relationship between RAC1 signaling and SU11652 activity. The first cell line used was IGR1 which is RAC1^P29S. […] The second new cell line was a knock-in RAC1P29S variant of A375 which allows direct comparisons between RAC1^WT and RAC1P29s melanoma."}, "[5]": {"test_system": "BRAF WT M405 melanoma tumor cell model", "procedure": "Cells were subcutaneously implanted at 3 million cells per mice with matrigel in the lower back of the mice. Once the tumors were palpable (150-200 mm^3), the mice were randomized and drug treatment was initiated. The mice were treated with vehicle control, 20 mg/kg sunitinib and 20 mg/kg SU11652. The mice were treated with drugs daily for the duration of the experiment. Tumor sizes were assessed twice weekly using caliper measurement, and tumor volume was calculated using the formula (length×width^2×π)/6. Mice were euthanized when the tumor volume exceeded 1250 mm^3 or when necessary for animal welfare. The drug was dissolved in 0.5% w/v carboxymethylcellulose sodium, 1.8% w/v NaCl, 0.4% w/v Tween-80, 0.9% w/v benzyl alcohol. All mice were sacrificed before tumor weight exceeded 10% of body weight.\n6-8 week old Nod-Scid IL2Rγ KO mice (NSG) were implanted at a single subcutaneous site with 3×10^6 A375 or M405 melanoma cells (FIGS. 6 and 9, respectively) in matrigel (0.2 ml). When tumors reached approximately 150-200 mm^3 (day 11 post tumor cell implantation for A375 cells; day 21 post tumor cell implantation for […]), therapy was initiated. For A375 melanoma cells, treatment was with 20 mg/kg SU11652, 20 mg/kg Sunitinib, 50 mg/kg Debrafenib/0.5 mg/kg Trametinib or vehicle only (0.5% CMC/1.8% NaCl/0.4% Tween80/0.9% Benzyl Alcohol) at 0.2 ml/mouse PO qd. For M405 cells, treatment was with 20 mg/kg SU11652, 20 mg/kg Sunitinib or vehicle only (0.5% CMC/1.8% NaCl/0.4% Tween80/0.9% Benzyl Alcohol) at 0.2 ml/mouse PO qd. Compounds were administered as homogenous slurries after sonication (and heating at 60° C. for debrafenib/trametinib). Mice were weighed daily and tumors were measured with calipers twice weekly. Tumor volume was calculated as (L×W^2×pi)/6. When tumor volume reached >1250 mm^3 or if mice appeared moribund, they were euthanized and tumors immediately collected and snap frozen. […] All mice not previously euthanized were sacrificed on day 43 (A375 cells) or day 59 (M405 cells).\nTumor growth was evaluated as described in Evans (Evans et al., Cancer Immunol Res. 2015 June; 3(6):689-701). Time to endpoint (TTE) was determined by extrapolating the day on which tumors reached 1250 mm^3 from log-transformed tumor growth data sets. […] The median TTE was calculated for the group and tumor growth delay (TGD) defined as the increase in the median TTE in a treatment group compared to the control group, using the formula: % TGD=((T−C)/C)×[…]. […] The average % TGI was calculated for treatment days when all animals were still present. Mean tumor volumes±SEM were plotted and the difference between treated and control evaluated by Student's unpaired t-test (GraphPad QuickCalcs)."}, "[6]": {"test_system": "BRAF and MEK inhibitor resistant (BRAFr/MEKr) M481 cells", "assay": "3D viability dose response, BRAFr/MEKr M481", "assay_type": "cell-based", "settings": "M481 made resistant with Dabrafenib+Trametinib for approximately one month", "procedure": "FIG. 7 panels A-D show the effect of SU11652 on BRAF and MEK inhibitor resistant (BRAFr/MEKr) melanoma cells. M481 and A375 cells were treated with 10 nM Dabrafenib+1 nM Trametinib (M481 and A375), or 100 nM Dabrafenib+10 nM Trametinib (M481 and A375) for approximately one month to make them resistant to the BRAF and MEK inhibitor (BRAFr/MEKr)."}, "[7]": {"test_system": "A375 cells (BRAF V600E mutant melanoma)", "assay": "3D collagen culture viability dose response, A375", "assay_type": "cell-based", "settings": "A375, 3D collagen matrix, 72 h", "procedure": "Collagen was brought to room temperature. Cells were trypsinized, harvested and counted. […] Collagen was allowed to polymerize at 37° C."}, "[8]": {"settings": "M405, 20 mg/kg PO daily, compared with sunitinib"}},
  "note": "“Also recorded” adds a separate entry of the source.",
  "data": [
    {"molecule": "CCN(CC)CCNC(=O)c1c(C)[nH]c(/C=C2\\C(=O)Nc3ccc(Cl)cc32)c1C", "note": "[SU11652, 5-[(Z)-(5-chloro-2-oxo-1,2-dihydro-3H-indol-3-ylidene)methyl]-N-[2-(diethylamino)ethyl]-2,4-dimethyl-1H-pyrrole-3-carboxamide]", "values": [
      {"measurement": "cytotoxic effect (viability ratio dose response)", "setting": "[1]", "value": "broadly cytotoxic to melanoma cells"},
      {"measurement": "tumor growth rate between day 7 and 11 (mean tumor burden)", "setting": "[2]; 10 mg/kg orally", "value": 3.8, "unit": "times"},
      {"measurement": "tumor growth rate between day 7 and 11 (mean tumor burden)", "setting": "[2]; 40 mg/kg orally", "value": 2.35, "unit": "times"},
      {"measurement": "tumor control (dose dependence)", "setting": "[2]; 10-20-40 mg/kg orally, tumor burden to day 20", "value": "dose-dependent improvement in tumor control; also recorded: Higher doses of SU11652 lead to more efficient tumor control; also recorded: increasingly effective control of tumor volume"},
      {"measurement": "cell division of CD8+ and CD4+ T lymphocytes", "setting": "[3]", "value": "did not impair cell division"},
      {"measurement": "cytostatic activity", "setting": "[4]", "value": "caused both cytotoxic and cytostatic effect"},
      {"measurement": "cytotoxic activity", "setting": "[4]", "value": "caused both cytotoxic and cytostatic effect"},
      {"measurement": "average tumor growth inhibition", "setting": "[5]; [8]", "value": "better average tumor growth inhibition"},
      {"measurement": "tumor growth delay", "setting": "[5]; [8]", "value": "greater tumor growth delay"},
      {"measurement": "time to endpoint", "setting": "[5]; M405, 20 mg/kg PO daily, endpoint 1250 mm^3, compared with sunitinib", "value": "longer time to endpoint"},
      {"measurement": "toxicity leading to weight loss", "setting": "[5]; mouse, in vivo", "value": "did not incur a major toxicity that would lead to weight loss"},
      {"measurement": "effect on viability of resistant cells", "setting": "[6]", "value": "worked effectively on BRAF- and MEK-inhibition resistant melanoma cells; also recorded: effective on these RAF/MEK dual inhibition resistant cells"},
      {"measurement": "cytotoxic effect (viability ratio dose response)", "setting": "[7]", "value": "strong cytotoxic effect; also recorded: broadly cytotoxic to melanoma cells"}
    ]}
  ]
}
